This is an account of results in US10543258B2, “Antibacterial composition containing ADK protein as active ingredient, or composition for preventing or treating sepsis” (priority 2014, dated 2020).

One experiment concerns P. aeruginosa. Description: Growth of bacteria in LB broth, CFU over time. In kind it is cell-based, Pseudomonas aeruginosa. The note with it: 37° C., Adk 20, 50, 100 μg/ml, ampicillin 100 μg/ml, FIG. 3.
The test system of a further experiment is E. coli. Description: Growth of bacteria in LB broth, CFU over time. It counts as cell-based, Escherichia coli. The conditions noted are these: 37° C., Adk 20, 50, 100 μg/ml, ampicillin 100 μg/ml, FIG. 2. Here is the method:
(§1) To verify the antibacterial activity of the recombinant ADK protein obtained in Example 1, the effect of the ADK protein on the growth of gram-negative bacteria such as E. coli and P. aeruginosa and a gram-positive bacterium such as S. aureus was analyzed.
(§2) More specifically, 1×10^5 CFU of strains were put into a 10 ml LB broth, and an antibiotic (ampicillin) and the ADK protein were added respectively according to five conditions as follows (Group 1: LB broth media with 100 μg/ml ampicillin, Group 2: LB broth media with 20 μg/ml Adk, Group 3: LB broth media with 50 μg/ml Adk, Group 4: LB broth media with 100 μg/ml Adk, Group 5: Non-antibacterial agent LB broth media). The strains were cultured in a 37° C. shaking incubator, 100 μl aliquots of each group was taken at 3-hour intervals and diluted with an LB broth in predetermined ratios, followed by plating the resulting cells on an LB agar (Biobasic, Amherst, N.Y.) plate. The cells were cultured again in a 37° C. incubator overnight, and then CFU values over time were calculated by counting the number of colonies on the LB agar plate.

For a further experiment, the system named is S. aureus. Put plainly: Growth of bacteria in LB broth, CFU over time. The conditions noted are these: 37° C., Adk 20, 50, 100 μg/ml, ampicillin 100 μg/ml, FIG. 4. In kind it is cell-based, Staphylococcus aureus. As to the method:
as §1, §2

Experiment [1] deals with E. coli K1. Description: Sepsis animal model, survival rate. In kind it is in vivo, BALB/c mice. The note with it: gentamicin 100 μg/kg intraperitoneally; FIG. 12.
Experiment [2] deals with E. coli K1. Put plainly: Sepsis animal model, serum analysis. It counts as in vivo, BALB/c mice. The note with it: 12 hours after sepsis induction; LAL assay kit; FIG. 15. As to the method: Twelve hours after sepsis induction, levels of inflammatory cytokines (TNF-α, IL-6, and IL-1β), AST, ALT, BUN, and endotoxins in sera isolated from mice were analyzed. Here, a cytokine concentration was measured using an ELISA kit (eBiosciences, San Diego, Calif.), and endotoxins were analyzed using an endotoxin detection kit (LAL assay kit, Thermo Fisher Scientific, Bremen, Germany).

For `CC1(C)S[C@@H]2[C@H](NC(=O)[C@H](N)c3ccccc3)C(=O)N2[C@H]1C(=O)O` [ampicillin], the “growth of P. aeruginosa (CFU over time)” value in the experiment on P. aeruginosa is recorded as “inhibited”. For the same compound, in the experiment with E. coli, the “growth of E. coli (CFU over time)” value was “inhibited”. Also, the “growth of S. aureus (CFU over time)” value in the experiment with S. aureus is “inhibited”.

With gentamicin, the “time after sepsis induction at which all mice were dead” value with E. coli K1 [1] was determined as 30 h. Moreover, the “amount of endotoxins in mouse sera” value with E. coli K1 [2] is reported as “a significant difference from the negative control (CON) was not observed”.
